US10111874B2, “Combination therapies for treatment of cancer” (Araxes Pharma LLC, priority 2014, dated 2018)

What was measured:
H358 cells (KRAS G12C) = experiment: Western blots of downstream KRAS signaling nodes and apoptosis markers in H358 cells; format: cell-based; conditions: for G1 arrest and induction of apoptosis: H358 cells (FIG. 9, left panel); for apoptosis based on cleaved PARP levels / inhibition of downstream KRAS signaling nodes (Western blot): H358 cells; for apoptosis based on cleaved PARP levels: erlotinib 5 μM; for inhibition of downstream KRAS signaling nodes (Western blot): alone
Description: FIG. 2 depicts western blot analysis of downstream targets of K-Ras signaling. […] Paclitaxel was used as a positive control. The western blots were probed with antibodies for p-AKT, p-ERK, total ERK, p-RSK, p-S6 and cleaved PARP. Cleaved PARP is indicative of apoptosis. B) A549 cells that express the G12S isoform of K-Ras were used a control for K-Ras G12C inhibitor specificity. A549 cells were treated as in A).
Western blots were used to analyze downstream KRAS signaling nodes (AKT, ERK, RSK, S6) and a marker of apoptosis (cleaved PARP).
Western blots were used to analyze downstream KRAS signaling nodes (AKT, ERK, RSK, S6) and a marker of apoptosis (cleaved PARP). […] Taxol (paclitaxel) was used as a positive control.
Western blots were used to analyze downstream KRAS signaling nodes (AKT, ERK, RSK, S6) and a marker of apoptosis (cleaved PARP). […] Caspase activity was measured using a standard caspase activity luminescence assay (Capase-Glo, Promega).

[1] = target: T1, KRAS G12C 1-169, his-tagged protein, GDP-loaded (Homo sapiens, UniProt P01116, G12C); experiment: Biochemical assay: covalent binding to KRAS G12C analyzed by mass spectrometry
T1 construct: KRAS G12C 1-169, his-tagged protein, GDP-loaded

[2] = system: mutant cell lines (NCI-H23, SW1573); experiment: Western blots, KRAS G12C inhibitor with ruxolitinib or momelotinib; format: cell-based; conditions: I-272 1 μM; ruxolitinib or momelotinib 1 and 5 μM
Description: Western blots were used to analyze downstream KRAS signaling nodes (AKT, ERK, S6), transcription factors (STAT3, IκBα), protein marker (TBK1) and a marker of apoptosis (cleaved PARP). Treatment of mutant cell lines (NCI-H23, SW1573) were tested with an exemplary KRAS G12C inhibitor (compound I-272, 1 μM) alone or in combination with one of ruxolitinib (JAK 1/2 inhibitor, 1 and 5 μM) or momelotinib (JAK1/2, TBK1, IKKe inhibitor, 1 and 5 μM). […] Further, there is synergistic p-S6 inhibition in each of the combinations. Synergistic apoptosis strongly occurred when TBK1 and non-canonical NFκB signaling is inhibited.

H358 cells = experiment: Flow cytometry, cell cycle progression and apoptosis (sub-diploid cells); format: cell-based; conditions: single agents
Description: B) The average apoptosis response of NCI-H358, NCI-H1792, NCI-H2122, and SW1573 cell lines generated by flow cytometry as described in A).
(§1) Apoptosis was measured via flow cytometry. Gated populations=% of subdiploid apoptotic cells.
as §1
FIG. 7 depicts apoptosis in NCI-H358 cells treated with II-64 (10 μM), SN38 (5 nM), or a combination treatment (II-64+SN38). […] Apoptosis was measured via flow cytometry. Gated populations=% of subdiploid apoptotic cells.
Flow cytometry was used to evaluate KRAS G12C inhibitor combination treatments.
Next, flow cytometry was used to evaluate a KRAS G12C inhibitor in combination with the chemotherapeutic agents paclitaxel or docetaxel.

[3] = I-74 15 μM, PD0325901 100 nM, GDC0941 1 μM
[4] = compounds 48-246, measured at 2 h
[5] = 24 hours, G12C inhibitors 10 μM, GDC0941 2 μM (FIG. 2)
[6] = compounds 247-342, measured at 30 min

T1 sequence (P01116 1-169 isoform P01116-2 G12C): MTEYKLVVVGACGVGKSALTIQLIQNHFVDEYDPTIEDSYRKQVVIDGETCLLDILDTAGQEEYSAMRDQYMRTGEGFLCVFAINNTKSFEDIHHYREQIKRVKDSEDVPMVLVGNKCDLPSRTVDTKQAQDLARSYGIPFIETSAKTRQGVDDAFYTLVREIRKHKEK

C=CC(=O)N1CC(N2CCN(C(=O)CNc3cc(CC)c(Cl)cn3)CC2)C1 [II-74, 1-(3-(4-(2-(5-chloro-4-ethylpyridin-2-ylamino)acetyl)-piperazin-1-yl)azetidin-1-yl)prop-2-en-1-one]
G1 arrest and induction of apoptosis (H358 cells (KRAS G12C)): G1 arrest with low to modest induction of apoptosis | Binding % ([1]; determined at 2 hrs): + (+indicates binding activity from 5% to 20%)

N#CCNC(=O)c1ccc(-c2ccnc(Nc3ccc(N4CCOCC4)cc3)n2)cc1 [momelotinib, reference compound]
apoptosis based on cleaved PARP levels [2]: does not induce robust apoptosis

O=C(NOC[C@H](O)CO)c1ccc(F)c(F)c1Nc1ccc(I)cc1F [PD0325901]
G1 arrest and induction of apoptosis (H358 cells (KRAS G12C)): G1 arrest with low to modest induction of apoptosis | apoptosis based on cleaved PARP levels (H358 cells (KRAS G12C); [3]): does not induce robust apoptosis

C=CC(=O)N1CCN(c2ncnc3cc(-c4ccccc4O)c(Cl)cc23)CC1 [Compound I-74, 1-(4-(6-chloro-7-(2-hydroxyphenyl)quinazolin-4-yl)piperazin-1-yl)prop-2-en-1-one]
inhibition of downstream KRAS signaling nodes (Western blot) (H358 cells (KRAS G12C); 15 μM, 24 hours): clear and nearly complete inhibition of p-ERK, p-RSK, and p-S6 | apoptosis based on cleaved PARP levels (H358 cells (KRAS G12C); [3]): minimal cleaved PARP | Binding % [1, 4]: +++ (+++indicates binding activity greater than 50% and up to 75%)

C=CC(=O)N1CCN(c2ncnc3c(F)c(-c4ccccc4F)c(Cl)cc23)CC1 [Compound I-158, 1-(4-(6-chloro-8-fluoro-7-(2-fluorophenyl)quinazolin-4-yl)piperazin-1-yl)prop-2-en-1-one]
apoptosis based on cleaved PARP levels (H358 cells (KRAS G12C); [5]): minimal cleaved PARP | inhibition of downstream KRAS signaling nodes (Western blot) (H358 cells (KRAS G12C); 24 hours, 10 μM (FIG. 2)): clear and nearly complete inhibition of p-ERK, p-RSK, and p-S6, with partial inhibition of p-AKT | Binding % [1, 4]: ++++ (++++indicates binding activity greater than 75%)

CS(=O)(=O)N1CCN(Cc2cc3nc(-c4cccc5[nH]ncc45)nc(N4CCOCC4)c3s2)CC1 [GDC0941, 2-(1H-indazol-4-yl)-6-(4-methanesulfonyl-piperazin-1-ylmethyl)-4-morpholin-4-yl-thieno[3,2-d]pyrimidine, reference compound]
G1 arrest and induction of apoptosis (H358 cells (KRAS G12C)): G1 arrest with low to modest induction of apoptosis | apoptosis based on c-caspase 3 levels (H358 cells (KRAS G12C); H358 cells (FIG. 11)): does not induce robust apoptosis | cell cycle arrest and induction of apoptosis (flow cytometry) (H358 cells): G1 arrest with low to modest induction of apoptosis

C=CC(=O)N1CCN(c2c(C#N)cnc3cc(-c4c(O)cccc4F)c(Cl)cc23)CC1 [Compound I-220, 4-(4-acryloylpiperazin-- yl)-6-chloro-7-(2-fluoro-6-hydroxyphenyl)quinoline-3-carbonitrile]
Binding % [1, 4]: +++ (+++indicates binding activity greater than 50% and up to 75%)

C=CC(=O)N1CC(N2CCN(C(=O)c3cc(C4CC4)c(Cl)cc3OC)CC2)C1 [II-47, 1-(3-(4-(4-chloro-5-cyclopropyl-2-methoxybenzoyl)-piperazin-1-yl)azetidin-1-yl)prop-2-en-1-one]
Binding % ([1]; determined at 24 hrs): + (+indicates binding activity from 5% to 15%)

Cc1ccc2[nH]ncc2c1-c1c(Cl)cc2c(N3CCN(C(=O)/C=C/CN)CC3)ncnc2c1F [Compound 311, (E)-4-amino-1-(4-(6-chloro-8-fluoro-7-(5-methyl-1H-indazol-4-yl)quinazolin-4-yl)piperazin-1-yl)but-2-en-1-one]
Binding % [1, 6]: +++ (+++indicates binding activity greater than 50% and up to 75%)

C=CC(=O)N1CCN(c2ncnc3cc(-c4ccccc4S(N)(=O)=O)c(Cl)cc23)CC1 [Compound I-213, 2-(4-(4-acryloylpiperaqzin-1-yl)-6-chloroquinazolin-7-yl)benzenesulfonamide]
Binding % [1, 4]: ++ (++indicates binding activity greater than 25% and up to 50%)

C=CC(=O)N1CCN(c2ncnc3cc(-c4ccccc4C(F)(F)F)c(Cl)cc23)CC1 [Compound I-100, 1-(4-(6-chloro-7-(2-(trifluoromethyl)phenyl)quinazolin-4-yl)piperazin-1-yl)prop-2-en-1-one]
Binding % [1, 4]: +++ (+++indicates binding activity greater than 50% and up to 75%)

C=CC(=O)N1CC(N2CCN(C(=O)[C@@H](C)Nc3cc(CC)c(Cl)cc3O)CC2)C1 [II-70, (R)-1-(3-(4-(2-(4-chloro-5-ethyl-2-hydroxyphenylamino)-propanoyl)piperazin-1-yl)azetidin-1-yl)prop-2-en-1-one]
Binding % ([1]; determined at 2 hrs): ++ (++indicates binding activity greater than 20%)

C=CC(=O)N1CCN(c2nc(OC3CCOC3)nc3cc(-c4c(C)ccc5[nH]ncc45)c(Cl)cc23)CC1 (stereo not drawn) [Compound 300, 1-(4-(6-chloro-7-(5-methyl-1H-indazol-4-yl)-2-(tetrahydrofuran-3-yloxy)quinazolin-4-yl)piperazin-1-yl)prop-2-en-1-one]
Binding % [1, 6]: ++ (++indicates binding activity greater than 25% and up to 50%)

C=CC(=O)N1CCN(c2ncnc3cc(-c4cccc5[nH]ncc45)c(Cl)cc23)CC1 [Compound I-167, 1-(4-(6-chloro-7-(1H-indazol-4-yl)quinazolin-4-yl)piperazin-1-yl)prop-2-en-1-one]
Binding % [1, 4]: + (+indicates binding activity from 5% to 25%)

C=CC(=O)N1CC(N2CCN(C(=O)CNc3cc(C4CC4(F)F)c(Cl)cc3O)CC2)C1 (stereo not drawn) [II-56, 1-(3-(4-((4-chloro-5-(2,2-difluorocyclopropyl)-2-hydroxyphenyl)glycyl)piperazin-1-yl)azetidin-1-yl)prop-2-en-1-one]
Binding % ([1]; determined at 2 hrs): ++ (++indicates binding activity greater than 20%)

C=CC(=O)N1CCN(c2c(C#N)cnc3c(F)c(-c4c(O)cccc4F)c(Cl)cc23)CC1 [Compound I-246, 4-(4-acryloylpiperazin-1-yl)-6-chloro-8-fluoro-7-(2-fluoro-6-hydroxyphenyl)quinoline-3-carbonitrile]
Binding % [1, 4]: ++++ (++++indicates binding activity greater than 75%)

C=CC(=O)N1CCN(c2ncnc3cc(-c4c(O)ccc5ccccc45)c(Cl)cc23)CC1 [Compound I-153, 1-(4-(6-chloro-7-(2-hydroxynaphthalen-1-yl)quinazolin-4-yl)piperazin-1-yl)prop-2-en-1-one]
apoptosis based on cleaved PARP levels (H358 cells (KRAS G12C); [5]): minimal cleaved PARP | inhibition of downstream KRAS signaling nodes (Western blot) (H358 cells (KRAS G12C); 24 hours, 10 μM (FIG. 2)): clear and nearly complete inhibition of p-ERK, p-RSK, and p-S6, with partial inhibition of p-AKT | Binding % [1, 4]: ++++ (++++indicates binding activity greater than 75%)
